Experiments:
C57/Bl6J DIO mice [1] = assay: Increasing dosages of Compound 72 for 7 days in diet-induced obesity mouse model; type: in vivo; conditions: positive control 30 mg/kg QD PO 7 days
From the text: (§1) Male C57/Bl6J DIO mice were obtained from The Jackson Laboratory (Sacramento, Calif.). […] Animals were accustomed to these conditions for at least 2 weeks before experimentation and used at approximately 24 weeks of age.
(§2) Significance was accepted when p<0.05.
Male C57/Bl6J DIO mice were obtained from The Jackson Laboratory (Sacramento, Calif.). […] Animals were accustomed to these conditions for at least 2 weeks before experimentation and used at approximately 26 weeks of age.

[2] = test system: db/db mouse model of type II diabetes; conditions: db/db mice, positive control 30 mg/kg QD PO 7 days
Experimental: Male db/db mice homozygous for Lepr^db (6 weeks of age), were obtained from The Jackson Laboratory (Bar Harbor, Me.). Mice were group housed on a normal light/dark cycle (lights on: 07:00-19:00 h) with ad libitum access to a standard pelleted mouse diet and water. Animals were accustomed to these conditions for 2 weeks before experimentation. […] At 10:30 pm on the evening prior to endpoint measurement, mice were placed into clean cages and given free access to water, but not food for a period of 12 hours before the fasting blood glucose measurement. On the final day of the study, animals were dosed as normal, and then underwent a tail cut injury 2 hours prior to measurement of fasting blood glucose, to allow recovery from any stress the procedure might cause. Fasting blood glucose (FBG) was assessed from the animals at 10:30 am using an AlphaTRAK glucometer (Abbott Laboratories, USA). Following the FBG measurement blood was collected from each mouse, using a tail milking technique, into a capillary tube. Capillary tubes were centrifuged in a hematocrit (BD Triac 0200) and the resultant plasma transferred to an eppendorff. This sample, labelled as t=Ohr, was frozen at −80° C. to allow later measurement of insulin. At 11:30 am each animal was dosed with 0.5 g/kg of glucose, then blood glucose was measured at t=15, 30, 60, 90 and 120 minutes after glucose load. At the end of the OGTT blood was collected for a t=2 hr insulin determination as described above.
Fasting blood glucose values and glucose measurements taken during the OGTT were averaged and graphed (GraphPad Prism, GraphPad Software, La Jolla, Calif.). The area under the curve (AUC) was calculated for each individual animal. Plasma insulin levels were determined using an Ultrasensitive Insulin ELISA (ALPCO, Salem, N.H.). […] Insulin data was also represented in GraphPad Prism format. Statistical analysis was performed using one-way ANOVA followed by the appropriate post-test. Significance was accepted when p<0.05. Data are presented as mean and S.E.M.

C57/Bl6J DIO mice [3] = assay: 7 day dosing in diet-induced obesity (DIO) mouse model; type: in vivo
From the text: as §1, §2

[4] = test system: cortisone-induced insulin resistance in Sprague Dawley rats; assay: Cortisone induced insulin resistance in rats; type: in vivo, rat; conditions: cortisone 30 mg/kg sc + 30 mg/kg po
Experimental: Animals were dosed with cortisone (30 mg/kg sc qd) in combination with test compounds for 6 days and then terminated 27 hours after the final dose of cortisone. A reference standard (Mifepristone) was also included. Cortisone 21-acetate (Sigma C-3130) was supplied by RenaSci and administered using a dose volume of 5 ml/kg via the subcutaneous route as a fine suspension in 1% methylcellulose. […] Mifepristone (Sigma M8046) was provided by RenaSci.
Glucose and insulin determinations were performed on plasma samples obtained from a tail vein bleed taken after a 12 h fast, approximately 27 h after the last cortisone dose. Animals were then terminated and a terminal (cardiac) blood sample taken from which plasma was prepared.
Thirty four male Sprague Dawley rats (weight range 200-250 g) were ordered from Charles River, Margate, Kent, UK. […] Subsequently, animals underwent a 3 day baseline period during which they were dosed once daily with vehicle at t=0 h (07:00). […] Body weight was recorded immediately before dosing began at 07:00 (t=0 h).
On Day 6 of dosing rats were fasted for 12 h beginning at 22:30 (timed to coincide with the Day 7 termination). […] At 10:30 on Day 7, 27 h after the final dose of cortisone, a blood sample (300 μl) was taken from the lateral tail vein into tubes containing EDTA (Sarstedt 16.444). The blood was centrifuged and resultant plasma aliquot stored at −75° C. The animals were euthanized by CO2 asphyxiation followed by cervical dislocation. Terminal blood (approximately 10 ml) was collected by cardiac puncture into tubes containing EDTA (Sarstedt 5 ml 32.332) and then centrifuged and plasma stored at −75° C. The tail vein plasma was analyzed for glucose (n=2) using a commercial clinical reagent (Thermoelectron Infinity glucose reagent (TR15421) and for insulin (n=1) using the Mercodia ultrasensitive rat insulin rat ELISA (10-1251-10).
Plasma glucose and insulin were analyzed by robust regression or general linear model with treatment as a factor and bleeding order and baseline body weight as covariates. A log transformation was used if appropriate. Appropriate multiple comparison tests (two-tailed) were used to determine significant differences from the vehicle group and from the Cortisone group. P<0.05 was considered to be statistically significant.

SMILES | fasting blood glucose (C57/Bl6J DIO mice [1]) [mg/dL] | HOMA-IR [2] | fasting blood glucose [2] [mg/dL] | plasma insulin at t=0 [2] [ng/mL] | plasma insulin at t=2 hr [2] [ng/mL] | HOMA-IR (C57/Bl6J DIO mice [3]; 30 mg/kg PO 7 days) | plasma insulin at t=0 (C57/Bl6J DIO mice [3]; 30 mg/kg PO 7 days) [ng/mL] | plasma insulin at t=2 hr (C57/Bl6J DIO mice [3]; 30 mg/kg PO 7 days) [ng/mL] | fasting blood glucose (C57/Bl6J DIO mice [3]; positive control 30 mg/kg PO 7 days) [mg/dL] | HOMA-IR ([4]; insulin resistant rats) | fasted plasma insulin ([4]; rats) [ng/mL] | fasted plasma glucose ([4]; rats, unit printed as ng/mL) [ng/mL]
CN(CCOc1ccc(CC2SC(=O)NC2=O)cc1)c1ccccn1 (stereo not drawn) [Rosiglitazone, reference compound] | 161.1 ± 8.06 | 50.58+/−3.52 units | 280.4 ± 13.66 | 3.05 ± 0.14 | 2.28 ± 0.08 | 24.60+/−1.42 units | 2.70 ± 0.12 | 2.30 ± 0.06 | 153.9 ± 5.05 | – | – | –
CC#C[C@]1(O)CC[C@H]2[C@@H]3CCC4=CC(=O)CCC4=C3[C@@H](c3ccc(N(C)C)cc3)C[C@@]21C [Mifepristone, mifepristone, reference compound] | – | – | – | – | – | – | – | – | – | 29.99+/−2.54 units | 3.62 ± 0.29 | 7.43 ± 0.27

Reference: patent US10214507B2, “Carbazole-containing amides, carbamates, and ureas as cryptochrome modulators” (Reset Therapeutics, Inc., priority 2014, dated 2019)
